Laboratory results published in ChEMBL document CHEMBL4020763, “N-(1H-Pyrazol-3-yl)quinazolin-4-amines as a novel class of casein kinase 1δ/ε inhibitors: Synthesis, biological evaluation and molecular modeling studies” (Bioorg Med Chem Lett, 2017).
pIC50: −log10 of the molar value.

Columns and labels:
[1] = Inhibition of porcine brain CK1-delta/epsilon using CSK peptide as substrate after 30 mins in presence of ATP by scintillation counting method; parameters: species or system Sus scrofa
MIA PaCa-2 [2] = assay: Growth inhibition of human MIAPaCa2 cells at 100 uM by MTT assay relative to control; assay type: functional; settings: read-out: GI
MDA-MB-468 [3] = assay: Cytotoxicity against human MDA-MB-468 cells by MTT assay; assay type: functional, cell-based
ZR-75-1 [4] = assay: Cytotoxicity against human ZR-75-1 cells by MTT assay; assay type: functional, cell-based
HCT-15 [5] = assay: Cytotoxicity against human HCT15 cells by MTT assay; assay type: functional, cell-based
ZR-75-30 [6] = assay: Cytotoxicity against human ZR-7530 cells by MTT assay; assay type: functional, cell-based
HEK293 = assay: Cytotoxicity against HEK293 cells by MTT assay; assay type: cell-based; settings: Homo sapiens
Asteroidea = assay: Inhibition of M-phase starfish oocytes CDK1/cyclin B at 10 uM using histone H1 as substrate after 30 mins in presence of ATP by scintillation counting method relative to control
DU-145 = assay: Growth inhibition of human DU145 cells at 100 uM by MTT assay relative to control; assay type: functional; settings: read-out: GI
[7] = biological target: CDK9/cyclin T1 (Homo sapiens) (UniProt O60563+P50750); assay: Inhibition of recombinant human CDK9/cyclin T expressed in insect cells at 10 uM using YSPTSPSYSPTSPSYSPTSPSKKKK as substrate after 30 mins in presence of ATP by scintillation counting method relative to control
PANC-1 [8] = assay: Cytotoxicity against human PANC1 cells by MTT assay; assay type: functional, cell-based
[9] = biological target: Glycogen synthase kinase-3 (Sus scrofa, UniProt B2LUN4+I6LNT8); assay: Inhibition of porcine brain GSK-3 alpha/beta using YRRAAVPPSPSLSRHSSPHQpSEDEEE as substrate after 30 mins in presence of ATP by scintillation counting method
[10] = biological target: Dual specificity tyrosine-phosphorylation-regulated kinase 1A (Homo sapiens) (UniProt Q13627); assay: Inhibition of recombinant full length human GST-fused DYRK1A expressed in Escherichia coli at 10 uM using RS peptide as substrate after 30 mins in presence of ATP by scintillation counting method relative to control
CDK2/Cyclin A2 = CDK2/Cyclin A2 (Homo sapiens, UniProt P24941); assay: Inhibition of recombinant human CDK2/cyclin A using histone H1 as substrate after 30 mins in presence of ATP by scintillation counting method; assay type: protein-complex assay
BT-20 [11] = assay: Growth inhibition of human BT20 cells at 100 uM by MTT assay relative to control; assay type: functional; settings: read-out: GI
BT-20 [12] = assay: Cytotoxicity against human BT20 cells by MTT assay; assay type: functional, cell-based
[13] = biological target: Dual specificity protein kinase CLK1 (Mus musculus) (UniProt P22518); assay: Inhibition of recombinant mouse GST-fused CLK1 expressed in Escherichia coli at 10 uM using RS peptide as substrate after 30 mins in presence of ATP by scintillation counting method relative to control
A549 [14] = assay: Growth inhibition of human A549 cells at 100 uM by MTT assay relative to control; assay type: functional; settings: read-out: GI
[15] = Growth inhibition of HEK293 cells at 100 uM by MTT assay relative to control; assay type: cell-based; settings: human, read-out: GI
[16] = biological target: Glycogen synthase kinase-3 (Sus scrofa) (UniProt B2LUN4+I6LNT8); assay: Inhibition of porcine brain GSK-3 alpha/beta at 10 uM using YRRAAVPPSPSLSRHSSPHQpSEDEEE as substrate after 30 mins in presence of ATP by scintillation counting method relative to control
MDA-MB-468 [17] = assay: Growth inhibition of human MDA-MB-468 cells at 100 uM by MTT assay relative to control; assay type: functional; settings: read-out: GI
Sus scrofa = organism: Sus scrofa; assay: Inhibition of porcine brain CK1-delta/epsilon at 10 uM using CSK peptide as substrate after 30 mins in presence of ATP by scintillation counting method relative to control
[18] = biological target: Cyclin-dependent kinase 5/CDK5 activator 1 (Homo sapiens) (UniProt Q00535+Q15078); assay: Inhibition of recombinant human CDK5/p25 expressed in Escherichia coli at 10 uM using histone H1 as substrate after 30 mins in presence of ATP by scintillation counting method relative to control
ZR-75-30 [19] = assay: Growth inhibition of human ZR-7530 cells at 100 uM by MTT assay relative to control; assay type: functional; settings: read-out: GI
[20] = biological target: CDK2/Cyclin A2 (Homo sapiens) (UniProt P24941+P20248); assay: Inhibition of recombinant human CDK2/cyclin A at 10 uM using histone H1 as substrate after 30 mins in presence of ATP by scintillation counting method relative to control; assay type: protein-complex assay
MIA PaCa-2 [21] = assay: Cytotoxicity against human MIAPaCa2 cells by MTT assay; assay type: functional, cell-based
HCT-15 [22] = assay: Growth inhibition of human HCT15 cells at 100 uM by MTT assay relative to control; assay type: functional; settings: read-out: GI
MDA-MB-231 [23] = assay: Cytotoxicity against human MDA-MB-231 cells by MTT assay; assay type: functional, cell-based
MDA-MB-231 [24] = assay: Growth inhibition of human MDA-MB-231 cells at 100 uM by MTT assay relative to control; assay type: functional; settings: read-out: GI
A549 [25] = assay: Cytotoxicity against human A549 cells by MTT assay; assay type: functional, cell-based
MCF7 [26] = assay: Cytotoxicity against human MCF7 cells by MTT assay; assay type: functional, cell-based
[27] = biological target: Dual specificity protein kinase CLK1 (Mus musculus, UniProt P22518); assay: Inhibition of recombinant mouse GST-fused CLK1 expressed in Escherichia coli using RS peptide as substrate after 30 mins in presence of ATP by scintillation counting method
MCF7 [28] = assay: Growth inhibition of human MCF7 cells at 100 uM by MTT assay relative to control; assay type: functional; settings: read-out: GI
PANC-1 [29] = assay: Growth inhibition of human PANC1 cells at 100 uM by MTT assay relative to control; assay type: functional; settings: read-out: GI
ZR-75-1 [30] = assay: Growth inhibition of human ZR-75-1 cells at 100 uM by MTT assay relative to control; assay type: functional; settings: read-out: GI
[31] = Inhibition of M-phase starfish oocytes CDK1/cyclin B using histone H1 as substrate after 30 mins in presence of ATP by scintillation counting method; parameters: species or system Asteroidea

Dual specificity protein kinase CLK1, sequence (P22518 whole entry, the tested form may be a part): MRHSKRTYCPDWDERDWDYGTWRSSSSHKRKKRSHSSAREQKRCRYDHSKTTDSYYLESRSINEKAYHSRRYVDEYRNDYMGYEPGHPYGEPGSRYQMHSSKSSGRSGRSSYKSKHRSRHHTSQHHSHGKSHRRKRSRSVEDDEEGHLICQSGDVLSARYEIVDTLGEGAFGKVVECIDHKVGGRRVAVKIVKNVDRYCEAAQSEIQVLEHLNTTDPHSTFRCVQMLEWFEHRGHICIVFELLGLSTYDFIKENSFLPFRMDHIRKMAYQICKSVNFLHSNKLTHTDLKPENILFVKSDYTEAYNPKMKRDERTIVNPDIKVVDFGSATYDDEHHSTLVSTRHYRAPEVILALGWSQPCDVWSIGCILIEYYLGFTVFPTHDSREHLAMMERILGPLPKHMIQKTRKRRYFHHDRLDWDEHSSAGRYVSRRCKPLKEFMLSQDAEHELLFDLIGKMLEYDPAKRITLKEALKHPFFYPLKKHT
Dual specificity protein kinase CLK1 (Mus musculus), sequence (P22518 whole entry, looked up, the tested form may be a part): as the sequence (P22518 whole entry, the tested form may be a part) above
Cyclin-dependent kinase 5/CDK5 activator 1 (Homo sapiens), sequence (Q00535 whole entry): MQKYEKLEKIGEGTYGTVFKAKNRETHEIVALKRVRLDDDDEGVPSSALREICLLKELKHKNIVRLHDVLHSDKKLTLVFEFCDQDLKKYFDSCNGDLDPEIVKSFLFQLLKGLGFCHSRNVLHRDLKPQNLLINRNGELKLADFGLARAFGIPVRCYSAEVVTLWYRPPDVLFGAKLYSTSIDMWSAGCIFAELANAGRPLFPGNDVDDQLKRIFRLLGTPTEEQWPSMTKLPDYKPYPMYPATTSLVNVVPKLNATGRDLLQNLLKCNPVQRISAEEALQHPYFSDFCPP
Cyclin-dependent kinase 5/CDK5 activator 1 (Homo sapiens), sequence (Q15078 99-307 partner limits assumed): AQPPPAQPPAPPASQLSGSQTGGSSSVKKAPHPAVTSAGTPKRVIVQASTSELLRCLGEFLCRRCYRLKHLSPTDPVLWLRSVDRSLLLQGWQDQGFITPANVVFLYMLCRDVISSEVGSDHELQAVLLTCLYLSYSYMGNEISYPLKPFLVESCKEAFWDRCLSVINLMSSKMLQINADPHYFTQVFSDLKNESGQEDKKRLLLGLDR

## COc1cc2ncnc(Nc3cc(-c4ccc(F)cc4)[nH]n3)c2cc1OC
[1]
  pIC50: 5.85
MIA PaCa-2 [2]
  inhibition of growth at 100 µM: > 50%
MDA-MB-468 [3]
  pIC50: < 4.00
ZR-75-1 [4]
  pIC50: < 4.00
HCT-15 [5]
  pIC50: < 4.00
ZR-75-30 [6]
  pIC50: < 4.00
HEK293
  pIC50: < 4.00
Asteroidea
  inhibition: > 50%
DU-145
  inhibition of growth at 100 µM: > 50%
[7]
  inhibition: > 50%
PANC-1 [8]
  pIC50: 4.16
[9]
  pIC50: < 5.00
[10]
  inhibition: > 50%
CDK2/Cyclin A2
  pIC50: < 5.00
BT-20 [11]
  inhibition of growth at 100 µM: > 50%
BT-20 [12]
  pIC50: < 4.00
[13]
  inhibition: > 50%
A549 [14]
  inhibition of growth at 100 µM: > 50%
[15]
  inhibition at 100 µM: > 50%
[16]
  inhibition: > 50%
MDA-MB-468 [17]
  inhibition of growth at 100 µM: > 50%
Sus scrofa
  inhibition: > 50%
[18]
  inhibition: > 50%
ZR-75-30 [19]
  inhibition of growth at 100 µM: > 50%
[20]
  inhibition: > 50%
MIA PaCa-2 [21]
  pIC50: < 4.00
HCT-15 [22]
  inhibition of growth at 100 µM: > 50%
MDA-MB-231 [23]
  pIC50: < 4.00
MDA-MB-231 [24]
  inhibition of growth at 100 µM: > 50%
A549 [25]
  pIC50: < 4.00
MCF7 [26]
  pIC50: < 4.00
[27]
  pIC50: < 5.00
MCF7 [28]
  inhibition of growth at 100 µM: > 50%
PANC-1 [29]
  inhibition of growth at 100 µM: > 50%
ZR-75-1 [30]
  inhibition of growth at 100 µM: > 50%
[31]
  pIC50: < 5.00

## COc1cc2ncnc(Nc3cc(O)[nH]n3)c2cc1OC
[1]
  pIC50: > 5.00
MIA PaCa-2 [2]
  inhibition of growth at 100 µM: > 50%
MDA-MB-468 [3]
  pIC50: 4.06
ZR-75-1 [4]
  pIC50: < 4.00
HCT-15 [5]
  pIC50: < 4.00
ZR-75-30 [6]
  pIC50: < 4.00
HEK293
  pIC50: 4.16
Asteroidea
  inhibition: > 50%
DU-145
  inhibition of growth at 100 µM: > 50%
[7]
  inhibition: > 50%
PANC-1 [8]
  pIC50: < 4.00
[9]
  pIC50: < 5.00
[10]
  inhibition: > 50%
CDK2/Cyclin A2
  pIC50: < 5.00
BT-20 [11]
  inhibition of growth at 100 µM: > 50%
BT-20 [12]
  pIC50: < 4.00
[13]
  inhibition: > 50%
A549 [14]
  inhibition of growth at 100 µM: > 50%
[15]
  inhibition at 100 µM: > 50%
[16]
  inhibition: > 50%
MDA-MB-468 [17]
  inhibition of growth at 100 µM: > 50%
Sus scrofa
  inhibition: > 50%
[18]
  inhibition: > 50%
ZR-75-30 [19]
  inhibition of growth at 100 µM: > 50%
[20]
  inhibition: > 50%
MIA PaCa-2 [21]
  pIC50: < 4.00
HCT-15 [22]
  inhibition of growth at 100 µM: > 50%
MDA-MB-231 [23]
  pIC50: < 4.00
MDA-MB-231 [24]
  inhibition of growth at 100 µM: > 50%
A549 [25]
  pIC50: 4.13
MCF7 [26]
  pIC50: < 4.00
[27]
  pIC50: < 5.00
MCF7 [28]
  inhibition of growth at 100 µM: > 50%
PANC-1 [29]
  inhibition of growth at 100 µM: > 50%
ZR-75-1 [30]
  inhibition of growth at 100 µM: > 50%
[31]
  pIC50: < 5.00

## COc1ccc(-c2cc(Nc3ncnc4cc(OC)c(OC)cc34)n[nH]2)cc1
[1]
  pIC50: > 5.00
MIA PaCa-2 [2]
  inhibition of growth at 100 µM: > 50%
MDA-MB-468 [3]
  pIC50: 4.34
ZR-75-1 [4]
  pIC50: < 4.00
HCT-15 [5]
  pIC50: > 4.00
ZR-75-30 [6]
  pIC50: > 4.00
HEK293
  pIC50: < 4.00
Asteroidea
  inhibition: > 50%
DU-145
  inhibition of growth at 100 µM: > 50%
[7]
  inhibition: > 50%
PANC-1 [8]
  pIC50: < 4.00
[9]
  pIC50: < 5.00
[10]
  inhibition: > 50%
CDK2/Cyclin A2
  pIC50: < 5.00
BT-20 [11]
  inhibition of growth at 100 µM: > 50%
BT-20 [12]
  pIC50: < 4.00
[13]
  inhibition: > 50%
A549 [14]
  inhibition of growth at 100 µM: > 50%
[15]
  inhibition at 100 µM: > 50%
[16]
  inhibition: > 50%
MDA-MB-468 [17]
  inhibition of growth at 100 µM: > 50%
Sus scrofa
  inhibition: > 50%
[18]
  inhibition: > 50%
ZR-75-30 [19]
  inhibition of growth at 100 µM: > 50%
[20]
  inhibition: > 50%
MIA PaCa-2 [21]
  pIC50: > 4.00
HCT-15 [22]
  inhibition of growth at 100 µM: > 50%
MDA-MB-231 [23]
  pIC50: > 4.00
MDA-MB-231 [24]
  inhibition of growth at 100 µM: > 50%
A549 [25]
  pIC50: < 4.00
MCF7 [26]
  pIC50: < 4.00
[27]
  pIC50: < 5.00
MCF7 [28]
  inhibition of growth at 100 µM: > 50%
PANC-1 [29]
  inhibition of growth at 100 µM: > 50%
ZR-75-1 [30]
  inhibition of growth at 100 µM: > 50%
[31]
  pIC50: < 5.00
